Among the data in US10577363B2, “Substituted piperidine compounds” (EPIZYME, INC., priority 2014, dated 2020) are IC50 values, retold here.

The structures appear in SMILES notation. pIC50: −log10 of the molar value.

For assay [1], the target named is T1, SMYD3 (Homo sapiens (Human), UniProt Q9H7B4). Nature of the assay: SMYD3 cell assay (Trimethyl-MEKK2 In-Cell Western in 293T/17 cells). It is filed as cell-based. Particulars: Table 2A; read-out: SMYD3 Cell IC50. Summed up: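 In-Cell Western ratio of trimethyl-Lys260 MEKK2 to anti-flag signal; percent inhibition from DMSO and maximum-inhibition controls, IC50 by non-linear regression, triplicates.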

Assay [2] concerns the target T1, SMYD3. Description: SMYD3 biochemical assay (SPA, 3H-SAM methylation of MEKK2 protein substrate). As to conditions: Table 2A; read-out: SMYD3 Biochem IC50. The method in brief: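 Native full-length human SMYD3 (E. coli-expressed, tags removed) was preincubated with compound for 30 min at room temperature in 25 mM Tris-Cl pH 8.0, 1 mM TCEP, 0.005% BSG, 0.005% Tween 20. Reaction was started with 3H-SAM plus GST-MEKK2, quenched with 100 uM unlabeled SAM, and read by SPA scintillation counting.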

T1 sequence (Q9H7B4 whole entry): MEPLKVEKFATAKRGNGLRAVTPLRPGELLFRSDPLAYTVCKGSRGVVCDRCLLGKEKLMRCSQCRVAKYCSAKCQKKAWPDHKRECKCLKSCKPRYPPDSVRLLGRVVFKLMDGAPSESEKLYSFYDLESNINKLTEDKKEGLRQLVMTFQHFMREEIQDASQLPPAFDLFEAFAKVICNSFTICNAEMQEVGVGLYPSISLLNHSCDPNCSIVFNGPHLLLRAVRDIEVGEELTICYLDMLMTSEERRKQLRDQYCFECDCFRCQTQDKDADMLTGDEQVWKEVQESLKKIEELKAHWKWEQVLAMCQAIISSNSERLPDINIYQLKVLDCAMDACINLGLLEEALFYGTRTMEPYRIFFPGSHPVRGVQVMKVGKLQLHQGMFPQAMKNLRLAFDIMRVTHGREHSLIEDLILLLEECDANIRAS

On to `C[C@H]1C[C@@H](NC(=O)c2cc(C3CC3)on2)CCN1S(=O)(=O)CC1CCN(CCO)CC1` [compound 538, 5-cyclopropyl-N-((2S,4S)-1-(((1-(2-hydroxyethyl)piperidin-4-yl)methyl)sulfonyl)-2-methylpiperidin-4-yl)isoxazole-3-carboxamide], for which the negative logarithm of the IC50 (pIC50) (as a rule, the IC50 on a negative log10 scale, so that one unit is a factor of ten) at SMYD3 [1] is 7.53; on SMYD3 [2] it was 8.89.

In the case of `COCCCN1CCC(CS(=O)(=O)N2[C@@H]3CC[C@H]2C[C@@H](NC(=O)c2cc(C4CC4)on2)C3)CC1` [compound 542, 5-cyclopropyl-N-((1R,3r,5S)-8-(((1-(3-methoxypropyl)piperidin-4-yl)methyl)sulfonyl)-8-azabicyclo[3.2.1]octan-3-yl)isoxazole-3-carboxamide], the results for the pIC50 at SMYD3 [1] and on SMYD3 [2] were 7.30 and 8.80, respectively.

For the molecule `C[C@H]1C[C@@H](NC(=O)c2cc(C3CC3)on2)CCN1S(=O)(=O)CC1CCN(Cc2ccccc2)CC1` [compound 544, N-((2S,4S)-1-(((1-benzylpiperidin-4-yl)methyl)sulfonyl)-2-methylpiperidin-4-yl)-5-cyclopropylisoxazole-3-carboxamide], the pIC50 is 7.35 on SMYD3 [1] and 8.72 on SMYD3 [2].

On to `C[C@H]1C[C@@H](NC(=O)c2cc(C3CC3)on2)CCN1S(=O)(=O)N1CCC(N(C)C)CC1` [compound 545, 5-cyclopropyl-N-((2S,4S)-1-((4-(dimethylamino)piperidin-1-yl)sulfonyl)-2-methylpiperidin-4-yl)isoxazole-3-carboxamide], for which the negative logarithm of the IC50 (pIC50) on SMYD3 [1] is 7.40; at SMYD3 [2], 8.70.

With `C[C@H]1C[C@@H](NC(=O)c2cc(C3CC3)on2)CCN1S(=O)(=O)N1CCC(NCc2ccccc2)CC1` [compound 546, N-((2S,4S)-1-((4-(benzylamino)piperidin-1-yl)sulfonyl)-2-methylpiperidin-4-yl)-5-cyclopropylisoxazole-3-carboxamide], the results for the pIC50 on SMYD3 [1] and on SMYD3 [2] were 7.44 and 8.68, respectively.

In the case of `O=C(N[C@H]1C[C@H]2CC[C@@H](C1)N2S(=O)(=O)CC1CCCNC1)c1cc(C2CC2)on1` (stereo partly drawn) [compound 547, 5-cyclopropyl-N-((1R,3r,5S)-8-((piperidin-3-ylmethyl)sulfonyl)-8-azabicyclo[3.2.1]octan-3-yl)isoxazole-3-carboxamide], the negative-log IC50 (pIC50) on SMYD3 [1] is 7.15; on SMYD3 [2], 8.64.

Take `C[C@H]1C[C@@H](NC(=O)c2cc(C3CC3)on2)CCN1S(=O)(=O)CCCCN` [compound 548, N-((2S,4S)-1-((4-aminobutyl)sulfonyl)-2-methylpiperidin-4-yl)-5-cyclopropylisoxazole-3-carboxamide]: the negative-log IC50 (pIC50) was 7.03 at SMYD3 [1] and 8.62 on SMYD3 [2].

As to `O=C(N[C@H]1C[C@H]2CC[C@@H](C1)N2S(=O)(=O)CC1CCN(CCN2CCCCC2)CC1)c1cc(C2CC2)on1` [compound 549, 5-cyclopropyl-N-((1R,3r,5S)-8-(((1-(2-(piperidin-1-yl)ethyl)piperidin-4-yl)methyl)sulfonyl)-8-azabicyclo[3.2.1]octan-3-yl)isoxazole-3-carboxamide], the pIC50 on SMYD3 [1] was 6.51; on SMYD3 [2], 8.60.

Take `CC(C)N1CCC(CS(=O)(=O)N2CC[C@H](NC(=O)c3cc(C4CC4)on3)C[C@@H]2C)CC1` [compound 550, 5-cyclopropyl-N-((2S,4S)-1-(((1-isopropylpiperidin-4-yl)methyl)sulfonyl)-2-methylpiperidin-4-yl)isoxazole-3-carboxamide]: the pIC50 at SMYD3 [1] is 6.77; at SMYD3 [2], 8.59.

For the molecule `O=C(N[C@H]1C[C@H]2CC[C@@H](C1)N2S(=O)(=O)CC1CCN(CCC(F)(F)F)CC1)c1cc(C2CC2)on1` [compound 551, 5-cyclopropyl-N-((1R,3r,5S)-8-(((1-(3,3,3-trifluoropropyl)piperidin-4-yl)methyl)sulfonyl)-8-azabicyclo[3.2.1]octan-3-yl)isoxazole-3-carboxamide], the negative-log IC50 (pIC50) is 7.27 on SMYD3 [1] and 8.54 at SMYD3 [2].

As to `NC1CC2(C1)CN(S(=O)(=O)N1[C@@H]3CC[C@H]1C[C@@H](NC(=O)c1cc(C4CC4)on1)C3)C2` [compound 552, N-((1R,3r,5S)-8-((6-amino-2-azaspiro[3.3]heptan-2-yl)sulfonyl)-8-azabicyclo[3.2.1]octan-3-yl)-5-cyclopropylisoxazole-3-carboxamide], the pIC50 on SMYD3 [1] is 7.31; on SMYD3 [2], 8.51.

As to `C[C@H]1C[C@@H](NC(=O)c2cc(C3CC3)on2)CCN1S(=O)(=O)CC1CCN(CCN2CCCCC2)CC1` [compound 553, 5-cyclopropyl-N-((2S,4S)-2-methyl-1-(((1-(2-(piperidin-1-yl)ethyl)piperidin-4-yl)methyl)sulfonyl)piperidin-4-yl)isoxazole-3-carboxamide], the results for the pIC50 on SMYD3 [1] and at SMYD3 [2] were 6.98 and 8.47, respectively.

For `COCCN1CCC(CS(=O)(=O)N2CC[C@H](NC(=O)c3cc(C4CC4)on3)C[C@@H]2C)CC1` [compound 554, 5-cyclopropyl-N-((2S,4S)-1-(((1-(2-methoxyethyl)piperidin-4-yl)methyl)sulfonyl)-2-methylpiperidin-4-yl)isoxazole-3-carboxamide], the negative-log IC50 (pIC50) on SMYD3 [1] was 7.15; at SMYD3 [2] it was 8.46.

As for `COCCN1CCC(CS(=O)(=O)N2[C@@H]3CC[C@H]2C[C@@H](NC(=O)c2cc(C4CC4)on2)C3)CC1` [compound 556, 5-cyclopropyl-N-((1R,3r,5S)-8-(((1-(2-methoxyethyl)piperidin-4-yl)methyl)sulfonyl)-8-azabicyclo[3.2.1]octan-3-yl)isoxazole-3-carboxamide], the pIC50 at SMYD3 [1] was 7.25; on SMYD3 [2] it was 8.41.

Turning to `CC(C)CN1CCC(CS(=O)(=O)N2CC[C@H](NC(=O)c3cc(C4CC4)on3)C[C@@H]2C)CC1` [compound 557, 5-cyclopropyl-N-((2S,4S)-1-(((1-isobutylpiperidin-4-yl)methyl)sulfonyl)-2-methylpiperidin-4-yl)isoxazole-3-carboxamide], the figures for the pIC50 on SMYD3 [1] and at SMYD3 [2] were 6.58 and 8.38, respectively.

For `C[C@H]1C[C@@H](NC(=O)c2cc(C3CC3)on2)CCN1S(=O)(=O)N1CCNCC1` [compound 558, 5-cyclopropyl-N-((2S,4S)-2-methyl-1-(piperazin-1-ylsulfonyl)piperidin-4-yl)isoxazole-3-carboxamide], the negative-log IC50 (pIC50) at SMYD3 [1] is 7.14; at SMYD3 [2], 8.37.

`CN1C2CCC1CN(S(=O)(=O)N1[C@@H]3CC[C@H]1C[C@@H](NC(=O)c1cc(C4CC4)on1)C3)C2` [compound 560, 5-cyclopropyl-N-((1R,3r,5S)-8-((8-methyl-3,8-diazabicyclo[3.2.1]octan-3-yl)sulfonyl)-8-azabicyclo[3.2.1]octan-3-yl)isoxazole-3-carboxamide]: the pIC50 was 7.29 on SMYD3 [1] and 8.32 at SMYD3 [2].

Consider `CNCCNCCCS(=O)(=O)N1[C@@H]2CC[C@H]1C[C@@H](NC(=O)c1cc(C3CC3)on1)C2` [compound 563, 5-cyclopropyl-N-((1R,3r,5S)-8-((3-((2-(methylamino)ethyl)amino)propyl)sulfonyl)-8-azabicyclo[3.2.1]octan-3-yl)isoxazole-3-carboxamide], for which the negative-log IC50 (pIC50) at SMYD3 [1] was 6.47; on SMYD3 [2], 8.28.

Consider `NCCNCCCS(=O)(=O)N1[C@@H]2CC[C@H]1C[C@@H](NC(=O)c1cc(C3CC3)on1)C2` [compound 564, N-((1R,3r,5S)-8-((3-((2-aminoethyl)amino)propyl)sulfonyl)-8-azabicyclo[3.2.1]octan-3-yl)-5-cyclopropylisoxazole-3-carboxamide], for which the negative-log IC50 (pIC50) was 6.78 at SMYD3 [1] and 8.28 at SMYD3 [2].
